“And” between values parts separate entries of the source, which are not always exact repeats. Equal values may be shown once. Read-outs that look alike come from different tables or passages of the source. Positions of bridges follow the written chain, without caps; N, C: chain ends. Residues, ends and D or L forms follow the SMILES beside them.
Key:
[1] = system: Tmem233Cre/Cre knockout mice; assay: Nocifensive behaviors after intraplantar injection, Tmem233Cre/Cre mice; assay type: in vivo, mouse
Method: Nocifensive responses to intraplantar administration of ExTxA (5–10 nM) were assessed as previously described. In brief, ExTxA was diluted in sterile saline/0.1% BSA and administered by an intraplantar injection (40 μL) into a single hind paw of Tmem233^Cre/Cre, NaV1.7^Advill and wild-type littermate controls. Pain behaviors, consisting of paw licks or flinches, were counted from video recordings by a blinded investigator for up to 60 min following injection.

[2] = system: DRG neurons from Tmem233Cre/Cre knockout mice; assay: Calcium imaging, Tmem233Cre/Cre DRG neurons; assay type: cell-based, mouse
Method: DRG from all spinal levels were isolated from male and female mice (wild-type C57BL/6 J, Tmem233^Cre/Cre, NaV1.8^Cre/Cre, NaV1.9^−/− or littermate controls) as previously described[36],[38],[39]. For Ca^2+ imaging experiments, DRG neurons were dissociated following incubation with 1% collagenase type IV (Worthington, New Jersey, USA) for 1.5 h (37 °C, 5% CO2) and 2.5% trypsin (Sigma-Aldrich, Montana, USA) for 15 min and resuspended in Dulbecco’s modified Eagle’s medium (DMEM) (Sigma-Aldrich, New South Wales, Australia) supplemented with 10% fetal bovine serum (FBS) (Thermofisher, Massachusetts, USA) and penicillin/streptomycin (Thermofisher, Massachusetts, USA). Following plating in 96-well poly-D-lysine–coated culture plates, isolated neurons were incubated for 24 h at 37 °C with 5% CO2 prior to imaging.
Dissociated DRG neurons from Tmem233^Cre/Cre and C57BL/6 mice were plated on PDL-coated 96-well black-walled imaging plates and loaded with Fluo-4 AM calcium indicator (5 μM) (Invitrogen, Massachusetts, USA) for 1 h in culture medium. Cells were washed with Hanks’ balanced salt solution containing 20 mM HEPES and then transferred to the recording chamber of a Nikon Ti-E Deconvolution inverted microscope equipped with a Lumencor Spectra LED light source. Fluorescence images (excitation, 485 nm; emission, 521 nm) were acquired at 1 frame per second using a ×20 objective. Following the recording of baseline fluorescence (20 s), cells were consecutively exposed to buffer control (0.1% BSA, t = 30 s), ExTxA (10 nM, t = 60 s), and 30 mM KCl (30 mM, t = 210 s). […] Cells responding to buffer control were excluded from analysis.

[3] = system: TE-671 cells, TMEM233 KO; assay type: cell-based; settings: ExTxA 1 µM
[4] = system: NaV1.7 endogenously expressed in TE-671 cells; assay: Persistent NaV current, TE-671 cells (automated patch clamp); assay type: cell-based
[5] = system: wild-type C57BL/6 mice; settings: cited from earlier work
[6] = system: Drosophila melanogaster; assay type: in vivo; settings: injection 0.5 nmol, affected/total
Method: To test for insecticidal activity, we injected ExTxA into three-day old Drosophila melanogaster females (average weight 0.875 mg). In total 77 D. melanogaster were used for this study: 52 individuals were each injected with 0.5 nmol (50 nL of a […] solution) ExTxA, while 25 individuals served as control group and were injected with vehicle control (3% acetonitrile, 0.1% bovine serum albumin in water) and scored by a blinded observer.

[7] = target: T1, NaV1.7/TMEM233 (Homo sapiens, UniProt B4DJY2+Q15858); assay type: cell-based
Method: HEK293-NaV1.7 cells were transfected with TMEM233, CRELD1, LMAN2L, MMGT1, RNF121 and STT3B and co-transfected with five plasmids coding for the Glycosylphosphatidylinositol (GPI) complex (GPAA1, PIGK, PIGS, PIGU, PIGT) using Lipofectamine 2000. After 24 h, transfected cells were harvested and plated at a density of 10,000–15,000 cells per well on black-walled 384-well imaging plates. Plated cells were cultured for a further 24 h at 37 °C and 5% CO2. FLIPR (Fluorescent Imaging Plate Reader) Red membrane potential assay dye (Molecular Devices, California, USA) was diluted in physiological salt solution according to the manufacturer’s instructions (PSS, in mM: NaCl 140, glucose 11.5, HEPES 10, KCl 5.9, MgCl2 1.4, NaH2PO4 1.2, NaHCO3 5, CaCl2 1.8, pH 7.4). Growth medium was removed from the plate and replaced with 20 µL of FLIPR Red membrane potential assay dye per well and incubated in the dark at 37 °C for 60 min. […] Fluorescence responses to ExTxA were computed as the maximum change in fluorescence over baseline (ΔF/F0) using ScreenWorks (Molecular Devices, Version 5.1.2.94).

[8] = target: T1, NaV1.7/TMEM233; assay type: cell-based; remark: listed apart in the source
[9] = system: total NaV current in Tmem233Cre/Cre DRG neurons; assay: Persistent NaV current, Tmem233Cre/Cre DRG neurons; assay type: cell-based, mouse
[10] = system: hNaV1.5; assay: Persistent current, HEK293-hNaV1.5/β1; assay type: cell-based, human; settings: ExTxA 1 µM
[11] = best-fit value, log(agonist) vs. response -- variable slope (four parameters)

Q: For `CC[C@H](C)[C@@H]1NC(=O)[C@H](CCCNC(=N)N)NC(=O)[C@H](Cc2ccccc2)NC(=O)[C@H](CC(C)C)NC(=O)[C@H](CO)NC(=O)[C@@H]2CSSC[C@@H]3NC(=O)[C@H]([C@@H](C)O)NC(=O)[C@H](CSSC[C@H](NC(=O)[C@H](CCCNC(=N)N)NC(=O)[C@@H]4CCCN4C(=O)[C@@H](N)CC(C)C)C(=O)N[C@@H](CC(=O)O)C(=O)N[C@@H](CO)C(=O)N4CCC[C@H]4C(=O)N[C@@H](Cc4ccccc4)C(=O)N2)NC(=O)[C@H](CCCCN)NC(=O)[C@H](CC(=O)O)NC(=O)CNC(=O)[C@H](CSSC[C@@H](C(=O)N[C@H](C(=O)N2CCC[C@H]2C(=O)N[C@@H](CC(=O)O)C(=O)N[C@H](C(=O)O)C(C)C)C(C)C)NC(=O)[C@H](CC(C)C)NC(=O)CNC(=O)[C@H](Cc2ccccc2)NC(=O)[C@H]([C@@H](C)CC)NC(=O)[C@@H]2CCCN2C(=O)[C@H](CC(C)C)NC(=O)[C@@H]2CCCN2C(=O)[C@H](C(C)C)NC3=O)NC(=O)[C@H](CC(C)C)NC(=O)CNC1=O` [ExTxA, excelsatoxin A] (H-LPRCDSPFCSLFRIGLCGDKCTCVPLPIFGLCVPDV-OH; disulfide 4-21, 9-23, 17-32), which “nocifensive behaviors, 0-40 min combined (Fig. 3g)” value ([1]; TMEMCre KO, 0-40 min, individual animals, one line each (n = 16)) is on record?
A: 8 and 6 and 329 and 151 and 352 and 36 and 124 and 41 and 45 and 71 and 136 and 66 and 142 and 96

Q: And the “nocifensive behaviors, 0-40 min combined, mean (Fig. 3g)” value ([1]; TMEMCre KO, 0-40 min, mean, n = 16)?
A: 115.9

Q: What about the “ExTxA-induced pain behaviours (cumulative paw licks and flinches over 40 min)” value ([1]; i.pl. ExTxA 10 nM, Tmem233Cre KO, mean ± SEM, n = 16) of the same molecule?
A: 115.9 ± 25.3

Q: And the “ExTxA-induced nocifensive behaviors in Tmem233Cre/Cre KO mice” value ([1]; mouse, in vivo)?
A: significantly reduced

Q: What about the “nocifensive behaviors, 0-40 min combined, difference between means (B - A) ± SEM (Fig. 3g)” value ([1]; mouse, in vivo) of the same molecule?
A: -118.4 ± 37.67

Q: And the “ExTxA-induced DRG Ca2+ responses” value ([2]; ExTxA 10 nM, Tmem233Cre KO, Fluo-4, >1.5-fold increase, mean ± SEM, n = 7 wells)?
A: 22.33 ± 1.942 % neurons activated

Q: What about the “calcium imaging response (Fig. 3f)” value ([2]; KO, individual values, one line each (n = 7)) of the same molecule?
A: 24.6269 and 21.831 and 19.2118 and 28.0374 and 12.6582 and 26.1905

Q: And the “calcium imaging response (Fig. 3f), Mean” value ([2]; KO, mean, number of values 7, Std. Deviation 5.137, SEM 1.942)?
A: 22.33

Q: What about the “calcium imaging response (Fig. 3f), Median” value ([2]; KO, median, number of values 7) of the same molecule?
A: 23.77

Q: And the “Difference between means (B - A), TMEM233-/- minus wildtype” value [3]?
A: -0.7661 ± 0.02026

Q: And the “persistent current (I40 ms/Ipeak)” value ([3]; TMEM233-/-, individual cells)?
A: 0.1031 and 0.03299 and 0.02248 and 0.06663 and 0.03142 and 0.02781

Q: And the “ExTxA-induced persistent current (I40 ms/Ipeak; nA)” value [4]?
A: 0.8135

Q: What about the “persistent current (I40 ms/Ipeak)” value [4] of the same molecule?
A: 0.8735 and 0.8209 and 0.7837 and 0.8022 and 0.7553 and 0.8064 and 0.8529

Q: What about the “Mean Diff. of persistent current, Buffer vs. ExTxA” value ([4]; ExTxA 100 nM) of the same molecule?
A: -0.2502

Q: And the “TE-671 persistent current (I40 ms/Ipeak)” value ([4]; ExTxA 100 nM, individual cells)?
A: 0.226 and 0.2237 and 0.255 and 0.3482 and 0.2794 and 0.2574 and 0.2313 and 0.3524

Q: What about the “TE-671 persistent current (I40 ms/Ipeak)” value ([4]; ExTxA 100 nM, mean, n = 8) of the same molecule?
A: 0.272 ± 0.018 and 0.2717

Q: And the “persistent current (I40 ms/Ipeak)” value ([4]; ExTxA 1 µM, individual cells)?
A: 0.6558 and 0.8078 and 0.6143 and 0.6966 and 0.7266 and 0.5751 and 0.7653 and 0.7674 and 0.8038 and 0.7341 and 0.767

Q: What about the “Δ persistent current (I40 ms/Ipeak; buffer cf. ExTxA)” value ([4]; ExTxA 1 µM, mean) of the same molecule?
A: 0.719 ± 0.0230 and 0.7194

Q: And the “ExTxA-induced persistent current (I40 ms/Ipeak; nA)” value ([4]; ExTxA 1 µM, wildtype TE-671 (Fig. 3d), mean, n = 7)?
A: 0.81 ± 0.015

Q: And the “pain behavior after intraplantar administration in mice” value [5]?
A: elicits spontaneous pain behaviors and an axon reflex flare following intraplantar administration in mice

Q: And the paralysis ([6]; after 15 min, control 1/25)?
A: 2/52

Q: And the death ([6]; after 2 h, control 0/25)?
A: 1/52

Q: And the DF/F [7]?
A: 0.3009 and 0.2755

Q: And the “ΔF/F in NaV1.7 HEK293” value ([7]; ExTxA 1 µM, TMEM233, mean, n = 3)?
A: 0.29 ± 0.0075 and 0.2867

Q: And the DF/F ([7]; ExTxA 1 µM, TMEM233, replicate 3)?
A: 0.2837

Q: And the Bottom [7, 11]?
A: 0.07296

Q: What about the HillSlope [7, 11] of the same molecule?
A: 1.156

Q: What about the LogEC50 [7, 11] of the same molecule?
A: -8.146

Q: And the Span [7, 11]?
A: 0.6962

Q: And the Top [7, 11]?
A: 0.7692

Q: And the “ExTxA-sensitivity of NaV1.7-expressing HEK293 cells” value ([7]; of all 10 gene hits)?
A: only expression of TMEM233 imparted ExTxA-sensitivity to NaV1.7-expressing HEK293 cells

Q: And the “Best-fit parameter Bottom” value [8]?
A: 0.0729

Q: What about the “Best-fit parameter Hill slope” value [8] of the same molecule?
A: 1.156

Q: And the “Best-fit parameter Top” value [8]?
A: 0.7692

Q: What about the Top [8] of the same molecule?
A: 0.7845

Q: What about the “persistent current, Predicted (LS) mean diff.” value [8] of the same molecule?
A: -0.5401

Q: What about the “potency with TMEM233 versus PRRT2 or TRARG1” value [8] of the same molecule?
A: significantly more potent when co-expressed with TMEM233

Q: What about the “effect on inactivation, toxin in extracellular solution” value ([8]; ExTxA 100 nM in ECS) of the same molecule?
A: robustly inhibited inactivation

Q: And the “effect on inactivation, toxin in intracellular solution” value ([8]; ExTxA 100 nM in ICS)?
A: did not affect inactivation

Q: What about the “Difference between means (D - C), TMEM233 minus control” value ([8]; ExTxA 1 µM) of the same molecule?
A: -1468 ± 228.9 pA

Q: And the LogEC50 ([8]; Nav1.7/TMEM233, 95% CI -8.367 to -8.102, Fig 4g)?
A: -8.24

Q: And the HillSlope ([8]; Nav1.7/TMEM233, Fig 4g)?
A: 0.9284

Q: And the “persistent current, Mean diff, A2 - B2” value [9]?
A: 0.4591

Q: And the “ExTxA-induced persistent current (I40ms/Ipeak; nA) in DRG neurons” value ([9]; ExTxA 30 nM, Tmem233Cre KO, mean ± SEM, n = 7)?
A: 0.114 ± 0.04

Q: What about the “persistent current (I40 ms/Ipeak)” value ([10]; individual cells) of the same molecule?
A: 0.001512 and 0.003695 and 0.000623 and -0.00019 and 0.001997 and -0.00321 and -0.00096 and -7.2e-5 and 0.000901 and 0.000208 and 0.000397

Q: And the “Δ persistent current (I40 ms/Ipeak; buffer cf. ExTxA)” value ([10]; mean)?
A: 0.0004 ± 0.0005 and 0.0003926

From publication PMC10147923, “Pain-causing stinging nettle toxins target TMEM233 to modulate NaV1.7 function” (Nature Communications, 2023)
